Experimental data as given in US8178490B2, “Polybasic bacterial efflux pump inhibitors and therapeutic uses thereof” (priority 2007, dated 2012).
In brackets after ≈: the same amount, converted by molar mass.

Experiments:
[1] = Rat serum pharmacokinetics after 1.5-hour IV infusion; type: in vivo; settings: […] IV infusion in 0.9% saline, total dose 2, 5, 10 or 20 mg/kg, two-compartment model
Method: In the experiment depicted in Table 7, above, rat serum pharmacokinetics of selected inhibitor compounds was evaluated after 1.5-hour IV infusion of 1.5 ml solution of corresponding efflux pump inhibitor in 0.9% saline. Depending on the concentration used the total infused dose was 2, 5, 10 or 20 mg/kg. A two-compartment model was used to fit the data and calculate PK parameters.

[2] = system: Klebsiella pneumoniae KPM1004 overexpressing the AcrABTolC efflux pump; assay: microbe, parasite or virus in culture; type: cell-based; settings: for MPC16 (μg/mL) Azithromycin, KPM1004): lowest inhibitor concentration giving antibacterial activity with azithromycin at 1/16 of its MIC, K. pneumoniae KPM1004
Description: (§1) EPI activity is defined as concentration of an EPI compound that is necessary to achieve ½ of a maximum theoretical effect in increase of antibiotic susceptibility due to efflux inhibition. The maximum theoretical effect, Emax, is defined as a ratio of antibacterial activity of antibiotics (minimal inhibitory concentration, MIC) of pump overexpressing vs. pump lacking strains. […] The strain PAM1723, overexpressing the MexABOprM efflux pump was used as a test strain. […] Azithromycin was used as test antibiotic to assess the EPI activity in Klebsiella pneumoniae. The strain KPM1004 overexpressing the AcrABTolC efflux pump was used as a test strain. […] Thus, EPI activity, that is assessed in K. pneumoniae, is a concentration of an EPI compound that is necessary to increase susceptibility to azithromicin of KPM1004 sixteen fold.
(§2) The EPI activity of the test compounds was assessed by the checkerboard assay (Antimicrobial Combinations, Antibiotics in Laboratory Medicine, Ed. Victor Lorian, M.D., Fourth edition, 1996, pp 333338, which is incorporated herein by reference in its entirety) using a broth microdilution method performed as recommended by the NCCLS (National Committee for Clinical Laboratory Standards (NCCLS), 1997, Methods for Dilution of Antimicrobial Susceptibility Tests for Bacteria That Grow Aerobically, Fourth Edition; Approved Standard. NCCLS Document M7A4, Vol 17 No. 2, which is incorporated herein by reference in its entirety). […] All EPI compounds were readily soluble in water and stock solutions were prepared at a final concentration of 10 mg/ml. Stock solutions were further diluted, according to the needs of the particular assay, in Mueller Hinton Broth (MHB). Stock solution was stored at −80° C. The checkerboard assay was performed in microtiter plates. […] EPIs were diluted in the axis, each row containing a single concentration of an EPI. […] The assay was performed in MHB with a final bacterial (PAM1723 or […]) inoculum of 5 times 10^5 CFU/ml (from an early log phase culture). Microtiter plates were incubated during 20 h at 35° C. and were read using a microtiter plate reader (Molecular Devices) at 650 nm as well as visual observation using a microtiter plate reading mirror.
(§3) Azithromycin potentiation activities of selected inhibitors for K. pneumoniae are reported as MPC16 values.

[3] = system: P. aeruginosa PAM1723, overexpressing the MexABOprM efflux pump; type: cell-based, Pseudomonas aeruginosa; settings: lowest inhibitor concentration giving antibacterial activity with levofloxacin at 1/8 of its MIC
Description: as §1, §2, §3

[4] = system: Klebsiella pneumoniae KPM1007 which lacks efflux; assay: microbe, parasite or virus in culture; type: cell-based; settings: read-out: Azithromycin MIC

Row | Compound | MPC16 (μg/mL) Azithromycin, KPM1004) [2] [µg/mL] | MPC8 (μg/mL) (Levofloxacin, PAM1723) [3] [µg/mL] | further results
1 | 3-[(1S)-3-[bis(2-azaniumylethyl)carbamoyl]-1-{[(1S,2R)-1-carbamoyl-2-hydroxy-2-[4-(trifluoromethyl)phenyl]ethyl]carbamoyl}propan-1-aminium]quinolin-1-ium tetrachloride [Compound 3] | 1.25 | 1.25 | pharmacokinetic profile [1]: particularly attractive pharmacokinetic profiles
2 | Cl.Cl.Cl.Cl.Cl.NCCNCCN(CCN)C(=O)C[C@H](N)C(=O)N[C@@H](CCc1ccccc1)C(=O)Nc1cnc2ccccc2c1 [Compound 188, 3-[(2S)-2-[(1S)-2-[(2-azaniumylethyl)({2-[(2-azaniumylethyl)azaniumyl]ethyl})carbamoyl]-1-formamidoethan-1-aminium]-4-phenylbutanamido]quinolin-1-ium pentachloride] | 1.25 | 0.6 | –
3 | Cl.Cl.Cl.Cl.NCCN(CCN)C(=S)C(C[C@H](N)C(=O)N[C@H](Cc1ccc(C(F)(F)F)cc1)C(N)=O)c1cnc2ccccc2c1 (stereo partly drawn) [Compound 12, 3-[(1S)-3-[bis(2-azaniumylethyl)carbamothioyl]-1-{[(1R)-1-carbamoyl-2-[4-(trifluoromethyl)phenyl]ethyl]carbamoyl}propan-1-aminium]quinolin-1-ium tetrachloride] | 1.25 | 1.25 | –
4 | Cl.Cl.Cl.Cl.NCCN(CCN)C(=O)C[C@H](Nc1ccc2ncccc2c1)C(=O)N[C@@H](CC1CCCCC1)C(N)=O [Compound 13, 6-[(1S)-2-[bis(2-azaniumylethyl)carbamoyl]-1-{[(1S)-1-carbamoyl-2-cyclohexylethyl]carbamoyl}ethan-1-aminium]quinolin-1-ium tetrachloride] | – | 1.25 | –
5 | 3-[(1S)-3-[bis(2-azaniumylethyl)carbamoyl]-1-{[(1R)-1-carbamoyl-2-[4-(trifluoromethyl)phenyl]ethyl]carbamoyl}propan-1-aminium]quinolin-1-ium tetrachloride [Compound 1] | 0.6 | 0.3 | –
6 | CC[C@H]1OC(=O)[C@H](C)[C@@H](O[C@H]2C[C@@](C)(OC)[C@@H](O)[C@H](C)O2)[C@H](C)[C@@H](O[C@@H]2O[C@H](C)C[C@H](N(C)C)[C@H]2O)[C@](C)(O)C[C@@H](C)CN(C)[C@H](C)[C@@H](O)[C@]1(C)O [Azithromycin, reference compound] | – | – | MIC ([2]; Klebsiella pneumoniae, read-out: Azithromycin MIC): 32 mg/L; Emax (ratio of MIC of pump overexpressing vs. pump lacking strains) ([2]; azithromycin, KPM1004 vs KPM1007): 256; MIC [4]: 0.125 mg/L (≈ 0.167 µM)
7 | 3-[(1S)-3-[bis(2-azaniumylethyl)carbamoyl]-1-{[(1S)-1-carbamoyl-2-[4-(trifluoromethyl)phenyl]ethyl](methyl)carbamoyl}propan-1-aminium]quinolin-1-ium tetrachloride [Compound 5] | – | 0.6 | –
8 | NCCN(CCN)C(=O)CC[C@H](N)C(=O)N/C(=C/c1ccc(C(F)(F)F)cc1)C(=O)Nc1cnc2ccccc2c1 [Compound 4, 3-[(1S)-3-[bis(2-azaniumylethyl)carbamoyl]-1-{[(1E)-1-carbamoyl-2-[4-(trifluoromethyl)phenyl]eth-1-en-1-yl]carbamoyl}propan-1-aminium]quinolin-1-ium tetrachloride] | 1.25 | 1.25 | –
9 | 3-[(1S)-3-[bis(2-azaniumylethyl)carbamoyl]-1-{[(1S)-1-carbamoyl-2-[4-(trifluoromethyl)phenyl]ethyl]carbamoyl}propan-1-aminium]quinolin-1-ium tetrachloride [Compound 28] | 1.25 | 1.25 | –
